From publication PMC4457452 (2013) come the findings set out here.

For assay [1], the system named is AATT hairpin duplex (DNA, hairpin) CGAATTCGTTTTCGAATTCG
In words: UV thermal melting, 260 nm. As to conditions: 50 mM KCl, 10 mM TRIS, 3 mM EDTA, pH 7.3.

Assay [2] has as its system Tel22 (DNA, G4) AGGGTTAGGGTTAGGGTTAGGG
Put plainly: UV thermal melting, 295 nm. As to conditions: 50 mM KCl, 10 mM TRIS, 3 mM EDTA, pH 7.3.

Assay [3] concerns cMYC19 (DNA, G4) AGGGTGGGGAGGGTGGGGA
Put plainly: SPR steady state, two-site fit. Particulars: 50 mM KCl; 10 mM HEPES, 3 mM EDTA, pH 7.3; site 1 of 2.

Assay [4] concerns AATT hairpin duplex (DNA, hairpin) CGAATTCGTTTTCGAATTCG
Put plainly: SPR steady state. As to conditions: 50 mM KCl, 10 mM HEPES, 3 mM EDTA, pH 7.3.

Assay [5] relates to Tel22 (DNA, G4) AGGGTTAGGGTTAGGGTTAGGG
In words: SPR steady state, two-site fit. As to conditions: 50 mM KCl; 10 mM HEPES, 3 mM EDTA, pH 7.3; site 1 of 2.

Assay [6] concerns MYC22 (DNA, G4) TGAGGGTGGGGAGGGTGGGGAA
Put plainly: 1H NMR imino proton titration. As to conditions: 20 mM potassium phosphate; pH 6.02, 35 °C, 100 µM; 3'-end tetrad first, then 5'-end tetrad.

Assay [7] deals with Tel22 (DNA, G4) AGGGTTAGGGTTAGGGTTAGGG
In words: SPR. As to conditions: 50 mM KCl; 10 mM HEPES, 3 mM EDTA, pH 7.3; ligand range 10 nM–10 µM.

Assay [8] concerns AATT hairpin duplex (DNA, hairpin) CGAATTCGTTTTCGAATTCG
Put plainly: SPR. Particulars: 50 mM KCl; 10 mM HEPES, 3 mM EDTA, pH 7.3; ligand range 10 nM–10 µM.

In assay [9] the test system is cMYC19 (DNA, G4) AGGGTGGGGAGGGTGGGGA
In words: SPR. As to conditions: 50 mM KCl; 10 mM HEPES, 3 mM EDTA, pH 7.3; ligand range 10 nM–10 µM.

Bounds are passed on as bounds.

`CC1(C)C(/C=C/C=C2/N(CCC[N+](C)(C)C)c3ccc(I)cc3C2(C)C)=[N+](CCC[N+](C)(C)C)c2ccc(I)cc21`: the “∆Tm” value stood at 3 °C in assay [1] (drug:DNA 6:1) and 21 °C in assay [2] (drug:DNA 6:1). Moreover, the K1 in assay [3] was 7.8e+06 M⁻¹; in assay [4], < 10^5 M^−1; in [5] it was 2.1e+06 M⁻¹.

On to `CC1(C)C(/C=C/C=C2/N(CCC[N+](C)(C)C)c3ccc(Br)cc3C2(C)C)=[N+](CCC[N+](C)(C)C)c2ccc(Br)cc21`, for which the “∆Tm” value turned out to be 0 °C in assay [1] (drug:DNA 6:1, DNA 3 µM) and 24 °C in assay [2] (drug:DNA 6:1, DNA 3 µM). For the same compound, the values for the K1 in assay [3], in assay [4] (up to 1 µM) and in assay [5] were 1.2e+07 M⁻¹, < 10^5 M^−1 and 5.5e+06 M⁻¹, respectively. The binding result in [6] was “yes”.

Consider `CC1(C)C(/C=C/C=C2/N(CCC[N+](C)(C)C)c3ccc(C(=O)O)cc3C2(C)C)=[N+](CCC[N+](C)(C)C)c2ccc(C(=O)O)cc21`, for which the “∆Tm” value in assay [1] (drug:DNA 6:1) turned out to be 3 °C. Besides, the K1 in [3] was 5e+06 M⁻¹; in [4], < 10^5 M^−1; in [5] it was 830000 M⁻¹.

`CC1(C)C(/C=C/C=C2/N(CCC[N+](C)(C)C)c3ccc(S(=O)(=O)O)cc3C2(C)C)=[N+](CCC[N+](C)(C)C)c2ccc(S(=O)(=O)O)cc21`: the “∆Tm” value in [2] (drug:DNA 6:1) amounted to 1 °C. Further, the K1 in assay [3] is 570000 M⁻¹; in assay [4], < 10^5 M^−1; in [5], 820000 M⁻¹.

In the case of `CCCCN1/C(=C/C=C/C2=[N+](CCCC)c3ccccc3C2(C)C)C(C)(C)c2ccccc21`, the binding result in [7], in assay [8] and in assay [9] was “no” in each case. In addition, the “∆Tm” value in assay [2] (drug:DNA 6:1) came out at 0 °C.

As to `CC1(C)C(/C=C/C=C2/N(CCC[N+](C)(C)C)c3ccc(F)cc3C2(C)C)=[N+](CCC[N+](C)(C)C)c2ccc(F)cc21`, the values for the K1 in [3], in assay [4] and in assay [5] were 6.3e+06 M⁻¹, < 10^5 M^−1 and 5.9e+06 M⁻¹, respectively.

For `CC1(C)C(/C=C/C=C2/N(CCCc3ccccc3)c3ccccc3C2(C)C)=[N+](CCCc2ccccc2)c2ccccc21`, in [2] (drug:DNA 6:1), the “∆Tm” value is 11 °C. The K1 in assay [3] was 1.2e+06 M⁻¹; in assay [4], < 10^5 M^−1; in assay [5], 130000 M⁻¹.

For `CC1(C)C(/C=C/C=C2/N(CCC[N+](C)(C)C)c3ccccc3C2(C)C)=[N+](CCC[N+](C)(C)C)c2ccccc21`, the “∆Tm” value in assay [1] (drug:DNA 6:1) came out at 2 °C; in assay [2] (drug:DNA 6:1), 14 °C. Also, the K1 in [3] was 3.8e+06 M⁻¹; in assay [4] (up to 10 µM) it was < 10^5 M^−1; in assay [5], 390000 M⁻¹. In [6], the binding result is “yes”.

On to `CC1(C)C(/C=C/C=C2/N(CCC[N+](C)(C)C)c3ccc(Cl)cc3C2(C)C)=[N+](CCC[N+](C)(C)C)c2ccc(Cl)cc21`, for which, in assay [2] (drug:DNA 6:1), the “∆Tm” value is 19 °C. For the same compound, the K1 in [3] was 8.4e+06 M⁻¹; in [4], < 10^5 M^−1; in [5] it was 2.7e+06 M⁻¹.
